Measurements as given in ChEMBL document CHEMBL1148961, “10-membered macrolides from the insect pathogenic fungus Cordyceps militaris BCC 2816” (J Nat Prod, 2004).
Values after ≈ are worked out from the molar mass of the structure shown. Active and inactive are the calls of the source. The rule behind the calls is not given here.

Tests used:
Plasmodium falciparum [1] = test: Antimalarial activity against multidrug-resistant Plasmodium falciparum K1 at <20 ug/mL after 24 hrs by [3H]hypoxanthine uptake; type: functional, organism-based
Plasmodium falciparum [2] = test: Antimalarial activity against multidrug-resistant Plasmodium falciparum K1 after 24 hrs by [3H]hypoxanthine uptake; type: functional, organism-based

Q: With `C[C@@H]1CC[C@@H](O)/C=C/[C@@H](O)CC(=O)O1` as the compound, how does the Activity (Plasmodium falciparum [1]) read?
A: The Activity was “inactive”.

Q: `CO[C@H]1CC(=O)CC[C@@H](C)OC(=O)C[C@@H]1O` was tested. Which Activity (Plasmodium falciparum [1]) did it give?
A: The Activity was “inactive”.

Q: How did the IC50 (Plasmodium falciparum [2]) turn out when `C[C@H]1[C@@H](O)O[C@@H]2O[C@@]3(C)CC[C@H]4[C@H](C)CC[C@@H]1[C@@]24OO3` [ARTENIMOL] was run?
A: Its IC50 is 0.0012 mg/L (≈ 0.00422 µM).

Q: Which Activity (Plasmodium falciparum [1]) does the source give for `CO[C@@H]1CC(=O)CC[C@@H](C)OC(=O)C[C@@H]1O` here?
A: Its Activity is “inactive”.

Q: How did the IC50 (Plasmodium falciparum [2]) turn out when `Nc1ncnc2c1ncn2[C@@H]1O[C@H](CO)C[C@H]1O` [CORDYCEPIN] was run?
A: Its IC50 is 4.5 mg/L (≈ 17.9 µM).

Q: Which Activity (Plasmodium falciparum [1]) does the source give for `C[C@@H]1CCC(=O)C[C@H](O)[C@@H](O)CC(=O)O1` here?
A: Its Activity is “inactive”.
